Measurements published in PMC11359915, “Rattlesnake Crotalphine Analgesic Active on Tetrodotoxin-Sensitive Na^+ Current in Mouse Dorsal Root Ganglion Neurons” (Toxins, 2024).

Key:
certain cells = conditions: ref [28],[29],[30],[31],[32]; cited from earlier work
Description: (§1) To the best of our knowledge, such an effect of the crotalid peptide on cell plasma membrane constituents has never been described in the literature. The simplest explanation is that crotalphine interacts also with lipid membrane constituents since interactions between gating modifier toxins and the lipid membranes surrounding the channel have been previously evidenced. It is therefore likely that, in addition to the Na^+ channel subtype NaV1.7, the crotalid peptide targets also a second cell plasma membrane component. Further experiments are still needed to identify this second me ...

[1] = system: NaV channels and voltage-sensitive potassium (KV) channels; conditions: initially NaV channels, later KV channels; ref [28],[29],[30],[31],[32]; cited from earlier work
Description: as §1

DRG neurons = format: cell-based, adult mouse (Swiss, Mus musculus); conditions: positive control, 0.1%, 5–75 min; mean ± S.E.M., n = 4
Experimental: The CHO epithelial cell line was cultured as previously described. Primary cultures of DRG neurons were performed using adult female Swiss mice (Mus musculus, 8–12 weeks of age and 25–32 g body weight), purchased from Janvier Elevage (Le Genest-Saint-Isle, France) and acclimatized at the CEA animal facility for at least 48 hr before the experiments. All experimental procedures on mice were permitted by the Animal Ethics Committee of the CEA and the French General Directorate for Research and Innovation (project APAFIS#26651-2020072011192542v1, authorized for E.B. on 20 July 2020 for 5 years). […]
Cell viability was quantified by propidium iodide and trypan blue dye exclusion assays. […] The percentage of viable cells (i.e., the number of non-fluorescent cells relative to the number of total cells) was determined using the ImageJ 1.53g software (National Institutes of Health, Bethesda, MD, USA). At the end of the experiments, the total fluorescence of each well (function of the amount of propidium iodide-positive dead cells) was measured using a CLARIOstar® Plus microplate reader (BMG Labtech, Champigny-Sur-Marne, France).
The data are expressed as the means ± standard error of the mean (S.E.M.) of n different experiments. […]

[2] = system: NaV1.7 component of the TTX-sensitive Na^+ current of DRG neurons; format: cell-based, adult mouse (Swiss, Mus musculus)
hNaV1.1 = conditions: ref [22],[23],[24]; cited from earlier work
hNaV1.2–1.6 and hNaV1.8 = conditions: ref [22],[23],[24]; cited from earlier work
hNaV1.7 = conditions: cited from earlier work

In the case of “crotamine: the most abundant protein in the Crotalus durissus terrificus's venom (YKQCHKKGGHCFPKEKICLPPSSDFGKMDCRWRWKCCKKGSG; UniProt Q9PWF3 23-64, looked up)”, the “effect on cell viability” value (certain cells) is given as “decrease the viability of certain cells” and the “effect on functioning of ionic channels” value [1] is given as “alter the functioning of ionic channels”.
For triton X-100, the “decrease in viability of DRG neurons” value (DRG neurons) was 89.1 ± 1.7%.
With NC1=N[C@H](O)[C@H]2[C@H]3O[C@]4(O)O[C@@H]([C@@H](O)[C@@]2(N1)[C@@H]4O)[C@]3(O)CO [TTX, tetrodotoxin] the “Na^+ current decreased to % of the initial peak amplitude” value [2] was 8.1 ± 5.1% and the “recovery of the current after washout” value [2] was 83.5 ± 4.5%.
For “ProTx-II: tarantula venom peptide, a well-known selective inhibitor of the NaV1.7 channel subtype”, the “decrease in the TTX-sensitive Na^+ current amplitude” value ([2]; 10 nM, n = 3, unpublished data) is given as 79.2 ± 4.8%, the IC50 (hNaV1.1) is given as 16 nM and the IC50 (hNaV1.2–1.6 and hNaV1.8) is given as over 25 nM. The IC50 (hNaV1.7) was 0.3 to 1.6 nM.
